Data from paper PMC8745299, “Generation of Lasso Peptide-Based ClpP Binders” (International Journal of Molecular Sciences, 2021).
Values joined by “and” are separate entries in the source; they are usually repeats but may differ in a detail not shown here. Identical values can stand only once. Like-named read-outs stand apart in the source and are kept apart here. Bridge positions count the residues as written; N and C are the ends. Square brackets hold non-standard residues; d marks the D form. Peptide text beside a SMILES is read from it. * marks the point of attachment. Phe(3,5-F2) = N[C@@H](Cc1cc(F)cc(F)c1)C(=O)O; Pro(4R-Me) = C[C@H]1CN[C@H](C(=O)O)C1; Propanoyl(3-cHex) = O=C(CCC1CCCCC1)*; NMeA = CN[C@@H](C)C(=O)O

Assays:
[1] = target: T1, BsClpP (monomer) (Bacillus subtilis, UniProt P80244); test: Peptidase activity of BsClpP, predominantly monomeric preparation; format: biochemical, B. subtilis
T1 construct: His-tag (C); made in house; host or cells: E. coli BL21 (DE3)
Description: (§1) Peptide degradation assays were performed in black flat-bottom 96-well plates with a total reaction volume of 100 μL and reaction temperatures of 32 °C and 37 °C for SaClpP and BsClpP, respectively. Stock solutions of ADEP2 and MccJ25 WT or variants were dissolved in DMSO and pre-diluted to 100× of the final concentration. Accordingly, 1 μL of the respective stock solution was placed at the bottom of the wells. […] 50 μL of a 2× enzyme solution (final assay concentration: 1 μM) in activity buffer was added to the plate and incubated for 15 min at 32 °C and 37 °C for SaClpP and BsClpP activity assays, respectively. The enzyme reaction was started by addition of 49 μL of a solution of the fluorogenic model peptide substrate Suc-Leu-Tyr-AMC in activity buffer at a final concentration of 200 μM. For SaClpP assays, the activity buffer was comprised of 100 mM NaCl and 100 mM HEPES at pH 7. […] The fluorescence read-out was measured using a Tecan (Crailsheim, Germany) M200Pro plate reader (excitation/emission: 380/460 nm) every 30–60 s for 1 h. Enzyme velocity was determined by linear regression of the initial segment of the fluorescence-time plot in GraphPad Prism 5 (GraphPad Software, San Diego, CA, USA). […]

[2] = target: T2, BsClpP tetradecamer (Bacillus subtilis, UniProt P80244); test: Peptidase activity of pre-purified tetradecameric BsClpP; format: biochemical, B. subtilis; settings: read-out: EC50, BsClpP14 peptidase activity
T2 construct: His-tag (C); made in house; host or cells: E. coli BL21 (DE3)
Description: as §1

[3] = target: T3, BsClpP (Bacillus subtilis, UniProt P80244); test: BsClpP peptidase activity, preparation not specified; format: biochemical, B. subtilis
T3 construct: His-tag (C); made in house; host or cells: E. coli BL21 (DE3)
Description: (§2) Peptide degradation assays were performed in black flat-bottom 96-well plates with a total reaction volume of 100 μL and reaction temperatures of 32 °C and 37 °C for SaClpP and BsClpP, respectively. Stock solutions of ADEP2 and MccJ25 WT or variants were dissolved in DMSO and pre-diluted to 100× of the final concentration. Accordingly, 1 μL of the respective stock solution was placed at the bottom of the wells. […] 50 μL of a 2× enzyme solution (final assay concentration: 1 μM) in activity buffer was added to the plate and incubated for 15 min at 32 °C and 37 °C for SaClpP and BsClpP activity assays, respectively. The enzyme reaction was started by addition of 49 μL of a solution of the fluorogenic model peptide substrate Suc-Leu-Tyr-AMC in activity buffer at a final concentration of 200 μM. For SaClpP assays, the activity buffer was comprised of 100 mM NaCl and 100 mM HEPES at pH 7. BsClpP activity buffer (50 mM Tris-HCl, 25 mM MgCl2, 200 mM KCl, 2 mM DTT, pH 8) was used in BsClpP assays as well as in SaClpP experiments, where the buffer composition was supposed to lead to oligomeric breakdown of the SaClpP tetradecamer to allow testing the activity retaining effect of ClpP agonists. The fluorescence read-out was measured using a Tecan (Crailsheim, Germany) M200Pro plate reader (excitation/emission: 380/460 nm) every 30–60 s for 1 h. Enzyme velocity was determined by linear regression of the initial segment of the fluorescence-time plot in GraphPad Prism 5 (GraphPad Software, San Diego, CA, USA). All assays were performed in triplicate and repeated at least two times.

[4] = target: T4, SaClpP (Staphylococcus aureus, UniProt Q2G036); test: Peptide (Suc-LY-AMC) degradation by SaClpP in destabilizing Tris buffer pH 8; format: biochemical, S. aureus; parameters: Strep-tag (C); made in house; host or cells: E. coli BL21 (DE3); settings: Tris buffer pH 8; for EC50: 32 °C
T4 sequence (Q2G036 1-195): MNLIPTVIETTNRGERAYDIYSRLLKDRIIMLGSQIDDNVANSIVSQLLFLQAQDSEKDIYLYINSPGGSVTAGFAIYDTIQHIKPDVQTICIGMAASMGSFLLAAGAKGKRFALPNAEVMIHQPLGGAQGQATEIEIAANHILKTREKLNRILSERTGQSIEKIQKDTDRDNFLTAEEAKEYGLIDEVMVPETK
Description: (§3) In order to assess the different MccJ25 variants, we first chose S. aureus ClpP (SaClpP) as a model peptidase and performed in vitro degradation assays with the fluorogenic model peptide substrate Suc-LY-AMC. […] To investigate whether the MccJ25 variants can exert a stabilizing effect on the oligomeric structure of tetradecameric SaClpP, we conducted peptide degradation assays under destabilizing conditions employing a Tris buffer at pH 8.
This experimental setup was then used to differentiate the MccJ25 variants regarding their effect on ClpP stability. […] The apparent affinity constant was deduced from enzyme activity assays and represents the effector molecule concentration at half maximal stimulation of enzyme activity (the lower the apparent affinity constant, the higher the affinity). To exclude that 12IGF serves as a SaClpP substrate, we incubated a mixture of SaClpP and 12IGF under assay conditions for up to 260 min.
as §2

[5] = target: T4, SaClpP; test: Peptide (Suc-LY-AMC) degradation by SaClpP in HEPES buffer pH 7; format: biochemical, S. aureus; parameters: Strep-tag (C); made in house; host or cells: E. coli BL21 (DE3); settings: Figure 4A
Description: as §3
as §1, with “respectively.” for “respectively. The enzyme reaction was started by addition of 49 μL of a solution of the fluorogenic model peptide substrate Suc-Leu-Tyr-AMC in activity buffer at a final concentration of 200 μM. For SaClpP assays, the activity buffer was comprised of 100 mM NaCl and 100 mM HEPES at pH 7.”

[6] = target: T4, SaClpP; test: Analytical gel filtration, SaClpP oligomeric state; parameters: Strep-tag (C); made in house; host or cells: E. coli BL21 (DE3); settings: Superdex 200, Tris buffer pH 8, representative experiment from three repetitions
[7] = target: T4, SaClpP; test: biochemical; parameters: Strep-tag (C); made in house; host or cells: E. coli BL21 (DE3)
Description: Casein degradation assays were performed analogous to peptide degradation assays. Fluorescein-labelled casein (FITC-casein) was employed at final concentrations of 20 μM in the respective activity buffers (see peptide degradation assay). 1 μL of a 100× stock solution of ADEP2 in DMSO was placed at the bottom of the wells followed by the addition of a 2× SaClpP or BsClpP enzyme solution (1 μM final concentration, unless noted otherwise). The mixture was incubated at 32 °C or 37 °C for 15 min and then the reaction was started by the addition of a 2× FITC-casein solution in the corresponding activity buffer. The fluorescence read-out was measured using a Tecan (Crailsheim, Germany) M200Pro plate reader employing an excitation wavelength of 485 nm and an emission wavelength of 535 nm. Enzyme velocity was acquired by linear regression of the initial segment of the fluorescence graph and plotted against ADEP2 concentration. All assays were performed in duplicate or triplicate.

[8] = target: T4, SaClpP; parameters: Strep-tag (C); made in house; host or cells: E. coli BL21 (DE3); settings: ADEP2 vs natural product ADEP1; ref not given; cited from earlier work
Description: Figure 3 Grafting of the hydrophobic tripeptide binding motifs onto the MccJ25 lasso peptide scaffold. (A) Schematic of the ClpP tetradecamer and the complete Clp protease complex, i.e., ClpP in concert with ClpX. The interaction between ClpP and the ClpX ATPase occurs between protruding flexible loops of ClpX, carrying the conserved tripeptide motif (L/I/V)-G-(F/L), and the H-pockets of ClpP. The H-pockets are located between two adjacent monomers of ClpP. In the ClpXP complexes of S. aureus and B. subtilis, which we used for our biochemical assays, the respective motif is IGF. (B) The IGF tr ...

[9] = target: B. subtilis ClpP (Bacillus subtilis) (UniProt P80244); test: SEC; BsClpP purified under specific buffer conditions that favor tetradecamer assembly; tetradecameric fraction collected from a gel filtration column (buffers in ref. 43)

T3 sequence (P80244 whole entry): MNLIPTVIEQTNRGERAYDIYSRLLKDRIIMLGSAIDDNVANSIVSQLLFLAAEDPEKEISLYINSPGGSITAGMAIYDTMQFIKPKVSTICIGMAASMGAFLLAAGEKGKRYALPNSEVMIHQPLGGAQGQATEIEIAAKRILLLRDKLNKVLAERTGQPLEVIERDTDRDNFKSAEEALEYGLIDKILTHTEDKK
T1 sequence (P80244 whole entry): as above
T2 sequence (P80244 whole entry): as above

Compound: CC[C@H](C)[C@H](NC(=O)[C@@H](NC(=O)[C@H](Cc1ccccc1)NC(=O)[C@H](Cc1ccc(O)cc1)NC(=O)[C@@H]1CCC(=O)NCC(=O)NCC(=O)N[C@@H](C)C(=O)NCC(=O)N[C@@H](Cc2c[nH]cn2)C(=O)N[C@@H](C(C)C)C(=O)N2CCC[C@H]2C(=O)N1)C(C)C)C(=O)NCC(=O)N[C@@H](Cc1ccccc1)C(=O)N[C@H](C(=O)N1CCC[C@H]1C(=O)N[C@H](C(=O)N[C@@H](CO)C(=O)N[C@@H](Cc1ccccc1)C(=O)N[C@@H](Cc1ccc(O)cc1)C(=O)NCC(=O)O)[C@@H](C)CC)[C@@H](C)O [12IGF] (GGAGHVPEYFVIGFTPISFYG-OH; lactam N-8)
- EC50 ([1]; 5 μM ADEP2, Tris pH 8, 37 °C, ± S.D., two separate experiments, read-out: EC50, BsClpP1 peptidase activity (+ADEP2)): 60.2 ± 3.78 µM
- EC50 ([1]; with ADEP2 (Figure 5C), Tris pH 8, 37 °C, read-out: apparent affinity constant, BsClpP activation in the presence of ADEP2): 60 µM
- EC50 [2]: 60.3 ± 12.1 µM
- EC50 relative to ADEP ([3]; 12IGF EC50 in SaClpP and BsClpP peptidase assays vs EC50 values measured for ADEP): exceeded the EC50 values measured for ADEP by one to two orders of magnitude
- EC50 ([3]; Figure 5C,D, with or without ADEP2 not specified, 37 °C): 60 µM
- EC50 ([4]; 1 μM SaClpP, 200 μM Suc-Leu-Tyr-AMC, 15 min pre-incubation, fluorescence 380/460 nm, ± S.D., three independent experiments, read-out: EC50, stabilizing effect on SaClpP peptidase activity): 26 ± 3.32 µM
- EC50 ([4]; effector concentration at half maximal stimulation of enzyme activity, Suc-Leu-Tyr-AMC, read-out: apparent affinity constant, stabilizing effect on SaClpP peptidase activity): ~26 µM and 26 µM

Compound: C[C@@H]1C[C@H]2C(=O)OC[C@H](NC(=O)[C@H](Cc3cc(F)cc(F)c3)NC(=O)CCC3CCCCC3)C(=O)N3CCC[C@H]3C(=O)N(C)[C@@H](C)C(=O)N[C@@H](C)C(=O)N2C1 [ADEP2] ({Propanoyl(3-cHex)}-[Phe(3,5-F2)]SP[NMeA]A[Pro(4R-Me)]; ester 2-C)
- SaClpP peptidase activity retained in the presence of ADEP2 ([4]; Figure 4A): a substantial extent of the original activity (observed in the favorable HEPES buffer at pH 7) was retained in the presence of ADEP2
- SaClpP peptidase activity enhancement [5]: enhanced weakly
- SaClpP tetradecamer integrity [6]: Inactivation by oligomeric breakdown in Tris buffer at pH 8 can be circumvented by the addition of ADEP2
- EC50 [7]: 0.304 ± 0.179 µM
- affinity for SaClpP [8]: increased affinity for SaClpP

Compound: B. subtilis ClpP (from UniProt P80244 1-197) (enzyme)
- stoichiometry N [9]: 14
